# Experiments:
# [1] = test system: HBV; assay: In vitro antiviral assay: anti-HBV replication in HepAD38 cells (extracellular HBV DNA by QPCR); assay type: cell-based, hepatitis B virus (genotype D, serotype ayw); details: Hepatitis B virus, HePAD38, 168 h, 7 days incubation, extracellular HBV DNA by QPCR, read-out: Anti-HBV EC50
# Description: The anti-HBV activity of the Capsid Assembly Modulators (CAMs) was evaluated in a cell based assay utilizing the human hepatoma cell line HepAD38 (Ladner, S K., et al., 1998). HepAD38 cells were derived from the parental line, HepG2, that were stably transfected with a construct containing an HBV genome (genotype D, serotype ayw) under the control of a tetracycline repressible CMV promoter. Upon removal of tetracycline, viral pre-genomic RNA (pgRNA) and mRNAs are expressed and infectious viral particles are assembled and secreted into the culture medium providing a reliable, robust system to measure multiple steps of the HBV life cycle. Disruption of capsid formation results in reduced levels of DNA-containing virus particles that are released into the culture supernatant. To quantify the effect of CAMs on HBV replication, we developed a sensitive QPCR-based assay that measures extracellular HBV DNA levels upon treatment of HepAD38 cells with various concentrations of test compounds.
# HepAD38 cells were maintained in DMEM/F12 medium containing 10% FBS, 400 μg/mL G418 and 0.3 μg/mL tetracycline (tet+ media) to maintain repression of HBV replication. To evaluate each compound, HepAD38 cells were seeded into 24-well collagen coated culture plates (Corning BioCoat) at a density of 200,000 cells per well in 1 mL of medium without tetracycline (tet-media) and allowed to adhere overnight at 37° C., 5% CO2 in a humidified incubator. The following day, media was refreshed and a dose range of each compound was prepared by performing 1 log10 serial dilutions in 100% DMSO at 200× the desired assay concentration. Dilutions were then added to the cells resulting in a final dose range of 1 μM to 10 pM and the plates were returned to the incubator. Following 7 days of incubation, culture supernatants were harvested and HBV DNA levels were evaluated by QPCR and compared to the vehicle treated control wells (i.e. DMSO alone).
# To quantify HBV DNA levels, cell culture supernatants were diluted 1:10 in sterile, nuclease-free water (Gibco). The diluted supernatants were subsequently added to a PCR master mix containing 1× Roche Light Cycler Master Mix, 0.5 μM forward primer, 0.5 μM reverse primer (Fwd: 5′-[…] (SEQ ID NO 1); Rev: 5′-[…] (SEQ ID NO 2)), 0.2 μM Roche Universal Probe Library Probe 25. The volume was brought to 20 μL with nuclease-free water and amplification of the HBV target sequence was performed using a Roche LightCycler 480 QPCR instrument. PCR extended out to 45 cycles with each cycle consisting of a denaturation step at 95° C. for 10 sec., followed by an annealing step at 60° C. for 10 sec. and a brief extension step at 72° C. for 1 sec.
# Extracellular HBV DNA levels, expressed in copies/mL, were determined by comparison to a standard curve (10^2-10^9 copies/mL) using the Roche LightCycler analysis software. These values were subsequently converted to percent inhibition of HBV replication by dividing the HBV DNA levels in the experimental samples with those obtained from the vehicle control (˜1-2×10^5 copies/mL). Potency, expressed as an EC50 (the effective concentration required to inhibit 50% of HBV replication), was calculated from the dose-response curve using a 4-parameter non-linear regression analysis (GraphPad Prism). The nucleoside analog inhibitor entecavir was used as a positive control to validate each assay run. The EC50 value of entecavir in the HepAD38 assay was 0.5 nM, as previously reported in the literature.
# [2] = In vitro cytotoxicity assay (MTT cell viability) in HepG2 cells; assay type: cell-based, human; details: human
# Description: To evaluate antiviral selectivity, the cytotoxic activity of each compound was determined using a standard cell viability assay performed on the parental HepG2 cell line. Cell viability was determined by measuring the conversion of 3-(4,5-dimethylthiazol-2-yl)-2,5-diphenyltetrazolium bromide (MTT) to the insoluble formazan salt crystal that occurs in live cells. Briefly, HepG2 cells were seeded in 96-well plates at a density of 20,000 cells per well in […] (complete growth medium) and allowed to adhere overnight in a 37° C., […] humidified incubator. The next day, test agents were prepared by performing 8 half-log10 serial dilutions in 100% DMSO at 200× the final desired concentration in the assay. Compounds were tested over a range of concentrations from 30 μM to 1.0 nM in the assay. HepG2 cells were incubated in the presence of various concentrations of CAMs for 7 days in a 37° C., […] humidified incubator. At the completion of the 7-day incubation period, MTT reagent was added to each well and the mixture was incubated for an additional 3-4 hours. At the completion of the incubation period, all wells were aspirated to remove the culture medium. The formazan crystals were solubilized from the cell monolayers with 100% DMSO. Plates were briefly mixed on an orbital shaker and absorbance was measured at 492 nm using a Perkin-Elmer EnVision multi-label plate reader. All absorbance values were converted to a percentage of the signal obtained from the vehicle treated controls. Absorbance values at 492 nm are directly proportional to the number of viable cells present in the sample. A CC50 value (cytotoxic concentration that results in loss of 50% cell viability) was calculated from the dose-response curve by 4-parameter, non-linear regression analysis using the GraphPad Prism software. The positive control compound, staurosporine, reduced the viability of HepG2 cells in a dose-dependent manner (CC50=100 nM).
Structure (SMILES),EC50 [1],CC50 at 7 days [2]
"CCc1c(C(=O)Nc2ccc(F)c(C)c2)c(C)c(C(=O)C(=O)NCC(C)(C)O)n1C [Example 105, 2-ethyl-N-(4-fluoro-3-methylphenyl)-5-(2-((2-hydroxy-2-methylpropyl)amino)-2-oxoacetyl)-1,4-dimethyl-1H-pyrrole-3-carboxamide]",< 50 nM,> 30000 nM
"Cc1cc(NC(=O)c2c(C)c(C(=O)C(=O)N[C@@H]3CC[C@H](O)C[C@@H]3F)n(C)c2C)ccc1F [Example 122, N-(4-fluoro-3-methylphenyl)-5-(2-(((1R,2S,4S)-2-fluoro-4-hydroxycyclohexyl)amino)-2-oxoacetyl)-1,2,4-trimethyl-1H-pyrrole-3-carboxamide]",< 50 nM,5000 to 30000 nM
"Cc1c(C(=O)Nc2cc(Cl)cc(Cl)c2)c(C)n(C)c1C(=O)C(=O)N[C@H]1CC[C@@H](O)CC1 [Example 10, N-(3,5-dichlorophenyl)-5-(2-(((1s,4s)-4-hydroxycyclohexyl)amino)-2-oxoacetyl)-1,2,4-trimethyl-1H-pyrrole-3-carboxamide]",< 50 nM,5000 to 30000 nM
"Cc1cc(NC(=O)c2c(C)c(C(=O)C(=O)NC3(C)CCN(CC(=O)O)CC3)n(C)c2C)ccc1F [Example 27, 2-(4-(2-(4-((4-fluoro-3-methylphenyl)carbamoyl)-1,3,5-trimethyl-1H-pyrrol-2-yl)-2-oxoacetamido)-4-methylpiperidin-1-yl)acetic acid]",500 to 1000 nM,> 30000 nM
"Cc1cc(NC(=O)c2c(C)c(C(=O)C(=O)NC3(CC(=O)O)CCNCC3)n(C)c2C)ccc1F [Example 145, 2-(4-(2-(4-((4-fluoro-3-methylphenyl)carbamoyl)-1,3,5-trimethyl-1H-pyrrol-2-yl)-2-oxoacetamido)piperidin-4-yl)acetic acid]",50 to 499 nM,> 30000 nM
"CC(=O)N1CC[C@@H](NC(=O)C(=O)c2c(C)c(C(=O)Nc3ccc(F)c(C)c3)c(C)n2C)C[C@H]1C [Example 165, 5-(2-(((2R,4R)-1-acetyl-2-methylpiperidin-4-yl)amino)-2-oxoacetyl)-N-(4-fluoro-3-methylphenyl)-1,2,4-trimethyl-1H-pyrrole-3-carboxamide]",< 50 nM,> 30000 nM
"Cc1cc(NC(=O)c2c(C(C)C)c(C(=O)C(=O)N[C@H]3CC[C@@H](S(C)(=O)=O)CC3)n(C)c2C)ccc1F [Example 95, N-(4-fluoro-3-methylphenyl)-4-isopropyl-1,2-dimethyl-5-(2-(((1s,4s)-4-(methylsulfonyl)cyclohexyl)amino)-2-oxoacetyl)-1H-pyrrole-3-carboxamide]",> 1000 nM,> 30000 nM
"Cc1cc(NC(=O)c2c(C)c(C(=O)C(=O)Nc3ccncc3N3CCOCC3)n(C)c2C)ccc1F [Example 54, N-(4-fluoro-3-methylphenyl)-1,2,4-trimethyl-5-(2-((3-morpholinopyridin-4-yl)amino)-2-oxoacetyl)-1H-pyrrole-3-carboxamide]",500 to 1000 nM,> 30000 nM
"Cc1cc(NC(=O)c2c(C)c(C(=O)C(=O)N[C@H]3CC[C@@H](S(C)(=O)=O)CC3)n(C)c2-c2cccnc2)ccc1F [Example 151, N-(4-fluoro-3-methylphenyl)-1,4-dimethyl-5-(2-(((1s,4s)-4-(methylsulfonyl)cyclohexyl)amino)-2-oxoacetyl)-2-(pyridin-3-yl)-1H-pyrrole-3-carboxamide]",> 1000 nM,> 30000 nM
"Cc1cc(NC(=O)c2c(C)c(C(=O)C(=O)N[C@]3(C)CC[C@H](O)CC3)n(C)c2C2CCCCC2)ccc1F [Example 118, 2-cyclohexyl-N-(4-fluoro-3-methylphenyl)-5-(2-(((1s,4s)-4-hydroxy-1-methylcyclohexyl)amino)-2-oxoacetyl)-1,4-dimethyl-1H-pyrrole-3-carboxamide]",500 to 1000 nM,> 30000 nM
"Cc1cc(NC(=O)c2c(C)c(C(=O)C(=O)N[C@]3(C)C[C@H](O)C3)n(C)c2C2CCCCC2)ccc1F [Example 116, 2-cyclohexyl-N-(4-fluoro-3-methylphenyl)-5-(2-(((1s,3s)-3-hydroxy-1-methylcyclobutyl)amino)-2-oxoacetyl)-1,4-dimethyl-1H-pyrrole-3-carboxamide]",500 to 1000 nM,> 30000 nM
"Cc1cc(NC(=O)c2c(C)c(C(=O)C(=O)NC3CC(S(C)(=O)=O)C3)n(C)c2C)ccc1F (stereo not shown) [Example 31, N-(4-fluoro-3-methylphenyl)-1,2,4-trimethyl-5-(2-(((1s,3s)-3-(methylsulfonyl)cyclobutyl)amino)-2-oxoacetyl)-1H-pyrrole-3-carboxamide]",< 50 nM,> 30000 nM
"Cc1c(C(=O)Nc2ccc(F)c(C(=O)O)c2)c(C)n(C)c1C(=O)C(=O)NC(C)(C)C [Example 56, 5-(5-(2-(tert-butylamino)-2-oxoacetyl)-1,2,4-trimethyl-1H-pyrrole-3-carboxamido)-2-fluorobenzoic acid]",500 to 1000 nM,> 30000 nM
"Cc1c(C(=O)N2CCC(C)(O)CC2)c(C)n(C)c1C(=O)C(=O)NC(C)(C)C [Example 61, N-(tert-butyl)-2-(4-(4-hydroxy-4-methylpiperidine-1-carbonyl)-1,3,5-trimethyl-1H-pyrrol-2-yl)-2-oxoacetamide]",500 to 1000 nM,> 30000 nM
"Cc1cc(NC(=O)c2c(C)c(C(=O)C(=O)N[C@]3(C)C[C@H](O)C3)n(C)c2-c2nccs2)ccc1F [Example 174, N-(4-fluoro-3-methylphenyl)-5-(2-(((1s,3s)-3-hydroxy-1-methylcyclobutyl)amino)-2-oxoacetyl)-1,4-dimethyl-2-(thiazol-2-yl)-1H-pyrrole-3-carboxamide]",500 to 1000 nM,> 30000 nM
"Cc1cc(NC(=O)c2c(C)c(C(=O)C(=O)N[C@H]3CC[C@@H](S(C)(=O)=O)CC3)n(C)c2C2CCCCC2)ccc1F [Example 117, 2-cyclohexyl-N-(4-fluoro-3-methylphenyl)-1,4-dimethyl-5-(2-(((1s,4s)-4-(methylsulfonyl)cyclohexyl)amino)-2-oxoacetyl)-1H-pyrrole-3-carboxamide]",> 1000 nM,> 30000 nM
"Cc1c(C(=O)Nc2cc(Cl)nc(Cl)c2)c(C)n(C)c1C(=O)C(=O)N[C@]1(C)CC[C@@H](O)CC1 [Example 9, N-(2,6-dichloropyridin-4-yl)-5-(2-(((1r,4r)-4-hydroxy-1-methylcyclohexyl)amino)-2-oxoacetyl)-1,2,4-trimethyl-1H-pyrrole-3-carboxamide]",< 50 nM,> 30000 nM
